Test [1] concerns the target T1, Full-length human MNK1 (Homo sapiens, UniProt Q9BUB5, T385D).
T1 construct: GST (N); purchased Carna Biosciences 02-145; host or cells: baculovirus expression system
The experiment in a line: MNK1 biochemical IC50 assay (Caliper Mobility Shift Assay).

In test [2] the target is PLK1 (Homo sapiens, UniProt P53350). The test can be described thus: Kinase selectivity screen PLK1. Conditions: read-out: % inhibition of PLK1.
For test [3], the target named is RAF1 (Homo sapiens, UniProt P04049). The experiment in a line: Kinase selectivity screen RAF1. Conditions: read-out: % inhibition of RAF1.
Sequence of RAF1 (P04049 whole entry, species assumed): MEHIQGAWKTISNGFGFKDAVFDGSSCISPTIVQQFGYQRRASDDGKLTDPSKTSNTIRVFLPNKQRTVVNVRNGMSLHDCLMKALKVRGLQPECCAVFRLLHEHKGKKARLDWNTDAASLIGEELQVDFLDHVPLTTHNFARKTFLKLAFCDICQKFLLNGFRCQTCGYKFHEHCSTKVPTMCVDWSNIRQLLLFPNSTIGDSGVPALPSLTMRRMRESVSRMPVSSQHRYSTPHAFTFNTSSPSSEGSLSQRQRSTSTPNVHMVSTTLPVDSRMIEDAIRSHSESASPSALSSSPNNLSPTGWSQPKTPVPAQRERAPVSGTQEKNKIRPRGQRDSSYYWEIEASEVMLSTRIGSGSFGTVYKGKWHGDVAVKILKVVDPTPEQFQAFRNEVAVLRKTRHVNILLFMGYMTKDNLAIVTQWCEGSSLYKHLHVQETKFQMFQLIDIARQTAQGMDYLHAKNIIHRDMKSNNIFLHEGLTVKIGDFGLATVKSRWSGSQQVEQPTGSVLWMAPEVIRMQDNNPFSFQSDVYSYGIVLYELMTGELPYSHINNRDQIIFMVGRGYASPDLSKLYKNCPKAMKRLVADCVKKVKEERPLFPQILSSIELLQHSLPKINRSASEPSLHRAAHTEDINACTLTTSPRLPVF
For test [4], the target named is INSR (Homo sapiens, UniProt P06213). The experiment in a line: Kinase selectivity screen INSR. Conditions: read-out: % inhibition of INSR.
Sequence of INSR (P06213 28-1382, species assumed): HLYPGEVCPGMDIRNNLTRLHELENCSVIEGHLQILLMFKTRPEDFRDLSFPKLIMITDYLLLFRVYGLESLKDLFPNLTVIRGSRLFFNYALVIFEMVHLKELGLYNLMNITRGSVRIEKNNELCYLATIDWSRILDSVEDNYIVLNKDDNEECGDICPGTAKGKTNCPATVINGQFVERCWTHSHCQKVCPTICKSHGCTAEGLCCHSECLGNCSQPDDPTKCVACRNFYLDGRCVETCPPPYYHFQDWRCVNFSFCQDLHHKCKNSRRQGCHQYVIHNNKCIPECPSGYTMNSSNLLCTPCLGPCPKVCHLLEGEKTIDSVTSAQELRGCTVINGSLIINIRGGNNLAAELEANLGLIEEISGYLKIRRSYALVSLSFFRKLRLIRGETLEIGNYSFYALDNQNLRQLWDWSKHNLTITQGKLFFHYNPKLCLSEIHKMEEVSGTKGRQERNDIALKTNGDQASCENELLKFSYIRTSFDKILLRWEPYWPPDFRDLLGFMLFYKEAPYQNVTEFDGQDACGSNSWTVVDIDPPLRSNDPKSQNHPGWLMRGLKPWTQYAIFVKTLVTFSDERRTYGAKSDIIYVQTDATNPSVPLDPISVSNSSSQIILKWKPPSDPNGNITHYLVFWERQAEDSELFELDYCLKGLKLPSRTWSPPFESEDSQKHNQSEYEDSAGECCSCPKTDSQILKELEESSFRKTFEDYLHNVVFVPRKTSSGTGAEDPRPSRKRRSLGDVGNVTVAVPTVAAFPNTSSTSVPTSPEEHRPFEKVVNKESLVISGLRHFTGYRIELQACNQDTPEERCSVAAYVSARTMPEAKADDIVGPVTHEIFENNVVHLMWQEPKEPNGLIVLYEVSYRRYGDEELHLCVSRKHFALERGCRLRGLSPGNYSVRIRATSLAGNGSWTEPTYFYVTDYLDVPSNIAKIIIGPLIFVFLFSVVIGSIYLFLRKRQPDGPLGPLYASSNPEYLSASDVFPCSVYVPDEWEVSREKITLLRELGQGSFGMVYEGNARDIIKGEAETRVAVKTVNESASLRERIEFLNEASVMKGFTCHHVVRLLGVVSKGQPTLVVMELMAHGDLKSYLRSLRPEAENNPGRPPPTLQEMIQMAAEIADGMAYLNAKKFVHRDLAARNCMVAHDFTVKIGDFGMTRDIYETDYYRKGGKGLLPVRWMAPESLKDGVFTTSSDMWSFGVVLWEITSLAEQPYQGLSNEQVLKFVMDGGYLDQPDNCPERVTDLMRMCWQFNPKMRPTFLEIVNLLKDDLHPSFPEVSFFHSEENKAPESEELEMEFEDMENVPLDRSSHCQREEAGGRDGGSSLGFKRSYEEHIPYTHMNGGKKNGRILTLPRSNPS
For test [5], the target named is PAK7 (Homo sapiens, UniProt Q9P286). The experiment in a line: Kinase selectivity screen PAK7. Conditions: read-out: % inhibition of PAK7.
Sequence of PAK7 (Q9P286 whole entry, species assumed): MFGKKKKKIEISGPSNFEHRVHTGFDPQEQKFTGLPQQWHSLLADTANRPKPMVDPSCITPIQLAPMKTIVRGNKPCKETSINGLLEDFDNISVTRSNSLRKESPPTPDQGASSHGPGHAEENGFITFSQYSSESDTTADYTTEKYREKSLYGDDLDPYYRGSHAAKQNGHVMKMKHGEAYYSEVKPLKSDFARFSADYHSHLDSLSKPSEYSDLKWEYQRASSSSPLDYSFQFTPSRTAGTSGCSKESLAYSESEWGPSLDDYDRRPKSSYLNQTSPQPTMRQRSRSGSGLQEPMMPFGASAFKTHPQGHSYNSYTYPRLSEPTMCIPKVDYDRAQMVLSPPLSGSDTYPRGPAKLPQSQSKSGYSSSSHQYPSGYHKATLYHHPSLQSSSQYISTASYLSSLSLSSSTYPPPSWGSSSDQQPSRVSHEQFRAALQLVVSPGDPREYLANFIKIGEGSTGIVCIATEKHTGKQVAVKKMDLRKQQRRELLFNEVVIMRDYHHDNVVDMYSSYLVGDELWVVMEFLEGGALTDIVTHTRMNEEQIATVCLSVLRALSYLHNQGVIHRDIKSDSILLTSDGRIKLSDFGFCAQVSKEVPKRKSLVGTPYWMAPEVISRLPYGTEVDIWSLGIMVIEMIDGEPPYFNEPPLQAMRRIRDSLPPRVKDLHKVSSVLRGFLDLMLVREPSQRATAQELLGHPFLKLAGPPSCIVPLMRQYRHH
Test [6] deals with ABL2 (Homo sapiens, UniProt P42684). The experiment in a line: Kinase selectivity screen ABL2. Particulars: read-out: % inhibition of ABL2.
Test [7] concerns the target T2, DMPK (Homo sapiens, UniProt Q09013).
T2 sequence (Q09013 1-629): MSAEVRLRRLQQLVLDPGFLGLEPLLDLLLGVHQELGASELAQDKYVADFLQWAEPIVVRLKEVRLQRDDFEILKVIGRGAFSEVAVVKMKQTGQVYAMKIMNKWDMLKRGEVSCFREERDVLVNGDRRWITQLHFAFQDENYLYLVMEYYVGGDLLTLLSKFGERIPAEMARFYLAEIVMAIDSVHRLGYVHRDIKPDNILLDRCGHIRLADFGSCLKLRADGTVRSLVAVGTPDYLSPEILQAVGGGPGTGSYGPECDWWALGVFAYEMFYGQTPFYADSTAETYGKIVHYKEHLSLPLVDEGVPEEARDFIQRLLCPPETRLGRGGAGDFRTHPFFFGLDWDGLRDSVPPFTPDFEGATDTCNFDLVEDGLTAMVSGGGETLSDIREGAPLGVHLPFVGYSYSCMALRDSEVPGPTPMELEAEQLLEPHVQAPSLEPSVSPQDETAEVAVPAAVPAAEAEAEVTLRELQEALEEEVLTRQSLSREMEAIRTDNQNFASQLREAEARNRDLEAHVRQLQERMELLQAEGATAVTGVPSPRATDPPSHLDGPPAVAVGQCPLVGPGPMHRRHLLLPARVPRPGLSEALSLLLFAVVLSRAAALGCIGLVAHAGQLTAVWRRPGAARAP
The experiment in a line: Kinase selectivity screen DMPK. Particulars: read-out: % inhibition of DMPK.

The target in test [8] is FGFR4 (Homo sapiens, UniProt P22455). The experiment in a line: Kinase selectivity screen FGFR4. Particulars: read-out: % inhibition of FGFR4.
Sequence of FGFR4 (P22455 22-802, species assumed): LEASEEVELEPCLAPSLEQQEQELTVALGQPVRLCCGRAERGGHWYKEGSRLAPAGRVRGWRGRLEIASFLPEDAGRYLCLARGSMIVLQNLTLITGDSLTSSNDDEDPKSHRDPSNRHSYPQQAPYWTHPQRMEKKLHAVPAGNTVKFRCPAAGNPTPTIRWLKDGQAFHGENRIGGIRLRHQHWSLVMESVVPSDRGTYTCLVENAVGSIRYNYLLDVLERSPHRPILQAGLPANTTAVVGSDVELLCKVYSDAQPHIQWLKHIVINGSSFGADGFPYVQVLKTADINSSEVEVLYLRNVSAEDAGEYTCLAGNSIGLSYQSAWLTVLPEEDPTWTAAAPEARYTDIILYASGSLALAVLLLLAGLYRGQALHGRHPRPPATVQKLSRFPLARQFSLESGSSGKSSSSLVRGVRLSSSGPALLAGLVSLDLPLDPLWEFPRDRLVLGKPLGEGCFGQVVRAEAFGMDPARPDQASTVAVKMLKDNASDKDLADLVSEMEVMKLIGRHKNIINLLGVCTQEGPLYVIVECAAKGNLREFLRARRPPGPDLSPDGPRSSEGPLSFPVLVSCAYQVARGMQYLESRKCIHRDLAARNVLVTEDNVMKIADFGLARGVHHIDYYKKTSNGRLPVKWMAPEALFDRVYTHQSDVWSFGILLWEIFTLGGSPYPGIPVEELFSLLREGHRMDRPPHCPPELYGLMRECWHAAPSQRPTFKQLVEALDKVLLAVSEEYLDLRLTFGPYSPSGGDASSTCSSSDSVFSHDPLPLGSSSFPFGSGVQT
For test [9], the target named is T3, STK17A (Homo sapiens, UniProt Q9UEE5).
T3 sequence (Q9UEE5 1-414): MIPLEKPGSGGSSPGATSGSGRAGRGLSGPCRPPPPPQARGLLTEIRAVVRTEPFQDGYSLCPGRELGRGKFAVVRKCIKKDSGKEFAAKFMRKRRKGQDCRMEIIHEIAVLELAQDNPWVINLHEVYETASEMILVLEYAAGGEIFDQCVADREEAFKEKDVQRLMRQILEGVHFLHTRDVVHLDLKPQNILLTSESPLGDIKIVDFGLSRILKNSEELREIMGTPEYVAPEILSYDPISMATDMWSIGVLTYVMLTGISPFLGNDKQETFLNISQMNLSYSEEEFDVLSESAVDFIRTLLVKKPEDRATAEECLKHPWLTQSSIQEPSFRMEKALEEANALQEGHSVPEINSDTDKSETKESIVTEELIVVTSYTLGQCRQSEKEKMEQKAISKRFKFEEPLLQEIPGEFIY
The experiment in a line: Kinase selectivity screen STK17A. Conditions: read-out: % inhibition of STK17A.

Test [10] concerns the target PIP5K1A (Homo sapiens, UniProt Q99755). The test can be described thus: Kinase selectivity screen PIP5K1A. Conditions: read-out: % inhibition of PIP5K1A.
The target of test [11] is RPS6KB1 (Homo sapiens, UniProt P23443). The test can be described thus: Kinase selectivity screen RPS6KB1. Particulars: read-out: % inhibition of RPS6KB1.
Sequence of RPS6KB1 (P23443 whole entry, species assumed): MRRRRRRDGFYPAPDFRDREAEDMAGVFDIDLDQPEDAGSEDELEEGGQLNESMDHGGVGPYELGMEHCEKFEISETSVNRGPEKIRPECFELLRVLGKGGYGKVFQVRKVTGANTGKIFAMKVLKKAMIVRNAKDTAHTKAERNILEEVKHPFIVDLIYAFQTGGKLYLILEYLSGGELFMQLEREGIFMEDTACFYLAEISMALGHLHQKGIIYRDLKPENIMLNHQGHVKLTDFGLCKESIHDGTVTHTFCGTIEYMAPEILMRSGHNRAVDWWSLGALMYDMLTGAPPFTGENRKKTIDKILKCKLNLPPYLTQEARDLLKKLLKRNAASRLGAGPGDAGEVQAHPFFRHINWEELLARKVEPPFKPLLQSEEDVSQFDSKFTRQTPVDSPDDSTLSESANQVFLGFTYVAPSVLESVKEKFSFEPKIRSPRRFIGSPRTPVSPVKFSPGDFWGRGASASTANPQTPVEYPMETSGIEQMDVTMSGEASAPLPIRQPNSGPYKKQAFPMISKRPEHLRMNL
The mark [12] stands for this setting: read-out: P(IC50) MNK1 (converted).

Structures are written as SMILES. Read-outs that look alike come from different tables or passages of the source.

T1 sequence (Q9BUB5 1-424 isoform Q9BUB5-2 T344D): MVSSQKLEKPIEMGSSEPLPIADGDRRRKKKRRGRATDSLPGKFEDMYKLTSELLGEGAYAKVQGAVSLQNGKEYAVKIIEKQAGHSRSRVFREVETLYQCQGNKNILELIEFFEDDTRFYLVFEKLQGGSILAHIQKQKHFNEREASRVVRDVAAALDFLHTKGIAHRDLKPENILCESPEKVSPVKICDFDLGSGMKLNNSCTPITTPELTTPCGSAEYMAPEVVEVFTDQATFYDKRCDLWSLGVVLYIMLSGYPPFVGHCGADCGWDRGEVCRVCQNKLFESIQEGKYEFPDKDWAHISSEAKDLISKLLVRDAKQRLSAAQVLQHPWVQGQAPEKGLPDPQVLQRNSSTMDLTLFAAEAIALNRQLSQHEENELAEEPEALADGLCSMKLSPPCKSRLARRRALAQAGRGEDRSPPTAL
Sequence of PIP5K1A (Q99755 whole entry, species assumed): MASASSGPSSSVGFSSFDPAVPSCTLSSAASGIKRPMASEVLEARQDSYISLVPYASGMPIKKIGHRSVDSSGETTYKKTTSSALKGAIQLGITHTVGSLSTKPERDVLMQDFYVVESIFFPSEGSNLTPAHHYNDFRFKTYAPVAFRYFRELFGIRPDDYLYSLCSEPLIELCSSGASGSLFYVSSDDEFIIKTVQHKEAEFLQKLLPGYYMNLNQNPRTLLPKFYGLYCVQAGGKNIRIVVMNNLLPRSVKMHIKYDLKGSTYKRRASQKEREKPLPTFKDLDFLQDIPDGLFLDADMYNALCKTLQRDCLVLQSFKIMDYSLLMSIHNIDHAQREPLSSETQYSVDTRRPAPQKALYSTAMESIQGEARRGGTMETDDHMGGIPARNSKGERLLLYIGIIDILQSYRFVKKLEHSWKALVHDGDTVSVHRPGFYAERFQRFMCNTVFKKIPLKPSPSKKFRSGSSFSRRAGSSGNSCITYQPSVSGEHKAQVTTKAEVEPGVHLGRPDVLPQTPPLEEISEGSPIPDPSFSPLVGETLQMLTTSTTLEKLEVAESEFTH

Usually IC50 stands for the concentration that gives 50% inhibition. What is called inhibition is the change of the read-out against control, counted positive when it falls. Take `O=C(NCC1CCNCC1)c1nc2c(N3CCc4cc(F)ccc43)ncnc2s1` [Example 58, 7-(5-fluoroindolin-1-yl)-N-(4-piperidylmethyl)thiazolo[5,4-d]pyrimidine-2-carboxamide]: in test [1] (setting [12]), the IC50 is 5.01 nM. The inhibition at 1 µM in test [2] amounted to 1%; in test [3], 1%; in test [4], 20%; in test [5] it was 0%; in test [6], 0%; in test [7] it was 0%. The inhibition at 1 µM in [8] was 10%; in [9], 41%; in test [10], 1%; in test [11] it was 0%.

Turning to `CC(C)Oc1cc(F)ccc1Nc1ncnc2sc(C(=O)NCC3CCNCC3)nc12` [Example 10, 7-(4-fluoro-2-isopropoxy-anilino)-N-(4-piperidylmethyl)thiazolo[5,4-d]pyrimidine-2-carboxamide], the IC50 in test [1] is 50.1 nM. In addition, the inhibition at 1 µM in test [2] worked out at 0%; in test [3], 0%; in test [4], 8%; in test [5] it was 1%; in test [6], 0%; in test [7] it was 0%. Also, the inhibition at 1 µM in test [8] turned out to be 0%; in test [9] it was 2%; in test [10], 2%; in test [11] it was 0%.

In the case of `CN(C)CCCNC(=O)c1nc2c(N3CCc4cc(F)ccc43)ncnc2s1` [Example 64, N-[3-(dimethylamino)propyl]-7-(5-fluoroindolin-1-yl)thiazolo[5,4-d]pyrimidine-2-carboxamide], the IC50 in [1] (setting [12]) is 2.51 nM. Also, the inhibition at 1 µM in [2], in test [3], in test [4], in [5], in test [6] and in [7] was 0% in each case. Also, the inhibition at 1 µM in test [8] came out at 0%; in [9] it was 70%; in [10], 0%; in test [11], 0%.

These data come from patent publication US10669284B2, “Fused thiazolopyrimidine derivatives as MNKS inhibitors” (LIFEARC, priority 2015, dated 2020).
